Measured values as given in publication PMC10005185, “Structure-guided engineering of a receptor-agonist pair for inducible activation of the ABA adaptive response to drought” (Science Advances, 2023).
Several values for one entry are separate records, joined by “and”; a condition that tells them apart may be missing. Identical values can stand only once.

Experiments:
ΔNHAB1 with AtPYL5 = target: T1, ΔNHAB1 with AtPYL5 (Arabidopsis thaliana, UniProt Q9FLB1); experiment: PP2C inhibition assay, HAB1 with AtPYL5; format: biochemical
T1 construct: His; made in house
T1 sequence (Q9FLB1 whole entry, stated change not applied): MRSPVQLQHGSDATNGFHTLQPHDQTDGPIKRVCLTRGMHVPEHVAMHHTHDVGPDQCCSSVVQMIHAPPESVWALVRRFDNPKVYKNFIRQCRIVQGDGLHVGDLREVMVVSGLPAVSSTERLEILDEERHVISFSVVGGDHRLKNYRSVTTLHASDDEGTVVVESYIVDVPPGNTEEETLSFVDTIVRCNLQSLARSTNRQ
Description: (§1) His-tagged receptors and phosphatases were purified using nickel–nitrilotriacetic acid (Ni-NTA) affinity chromatography. Protein integrity was analyzed by SDS–polyacrylamide gel electrophoresis, followed by InstantBlue staining. Phosphatase activity was measured using p-Nitrophenyl Phosphate (pNPP) (25 mM) as substrate, 10 mM MnCl2,1 μM PP2C, and 2 μM of the indicated receptors. Proteins were incubated with the ligands for 10 min at room temperature. pNPP was then added to start the reactions, and the absorbance at 405 nm was monitored for 20 min in a ViktorX5 plate reader. Assays were repeated twice. For dose-response experiments, IC50 values were obtained with GraphPad Prism 9 using a nonlinear regression curve fit. Each ligand concentration was tested in triplicate. Phosphatase activity of ABI1 was measured using RRA(phosphoT)VA peptide as a substrate, as described ([27]).

[1] = test system: Arabidopsis thaliana seedlings (WT Col-0, overexpressing lines, receptor mutants); experiment: Seedling establishment assay; format: in vivo
Description: Seedling establishment was scored as the percentage of seeds that developed green expanded cotyledons and the first pair of true leaves at 5 or 7 days. Seedling establishment assays in the presence of ABA receptor agonists were performed in 24-well plates, where approximately 25 to 35 seeds per well were sown. Each well contained a different treatment. The experiment was repeated at least twice.

ΔNHAB1 with AtPYL1 = target: T2, ΔNHAB1 with AtPYL1 (Arabidopsis thaliana, UniProt Q8VZS8); experiment: PP2C inhibition assay, HAB1 with AtPYL1; format: biochemical
T2 construct: His; made in house
T2 sequence (Q8VZS8 whole entry, stated change not applied): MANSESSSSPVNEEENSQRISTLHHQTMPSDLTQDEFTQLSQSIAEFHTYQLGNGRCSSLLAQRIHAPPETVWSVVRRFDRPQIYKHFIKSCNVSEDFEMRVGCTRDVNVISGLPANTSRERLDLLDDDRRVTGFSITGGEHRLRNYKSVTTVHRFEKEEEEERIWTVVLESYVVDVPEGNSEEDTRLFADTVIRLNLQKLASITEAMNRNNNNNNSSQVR
Description: as §1

AtHAB1ΔN with CsPYL1 = experiment: PP2C inhibition assay, HAB1 with CsPYL1; format: biochemical, Citrus sinensis (CsPYL1); Arabidopsis thaliana (HAB1); conditions: fig. S1C; AtPYL5, AtPYL10 and PYL1-like receptors
Description: as §1, with “Proteins were incubated with the ligands for 10 min at room temperature. pNPP was then added to start the reactions, and the absorbance at 405 nm was monitored for 20 min in a ViktorX5 plate reader.” left out

AtHAB1ΔN with CsPYL1^5m [2] = experiment: PP2C inhibition assay, HAB1 with CsPYL1^5m; format: biochemical, Citrus sinensis (CsPYL1^5m); Arabidopsis thaliana (HAB1); conditions: lower for the synthetic receptor
Description: as §1, with “Proteins were incubated with the ligands for 10 min at room temperature. pNPP was then added to start the reactions, and the absorbance at 405 nm was monitored for 20 min in a ViktorX5 plate reader.” left out

AtHAB1ΔN with CsPYL1^5m [3] = target: AtHAB1ΔN with CsPYL1^5m (Citrus sinensis, UniProt A0A067E666, F137I/T135L/T153I/V112L/V168A); experiment: PP2C inhibition assay, HAB1 with CsPYL1^5m; format: biochemical, Citrus sinensis (CsPYL1^5m); Arabidopsis thaliana (HAB1); conditions: IC50 for inhibition of HAB1 (ΔNHAB1) in the presence of CsPYL1^5m, pNPP as substrate
AtHAB1ΔN with CsPYL1^5m (Citrus sinensis, UniProt A0A067E666, F137I/T135L/T153I/V112L/V168A), sequence (A0A067E666 1-209 V112L/T135L/F137I/T153I/V168A): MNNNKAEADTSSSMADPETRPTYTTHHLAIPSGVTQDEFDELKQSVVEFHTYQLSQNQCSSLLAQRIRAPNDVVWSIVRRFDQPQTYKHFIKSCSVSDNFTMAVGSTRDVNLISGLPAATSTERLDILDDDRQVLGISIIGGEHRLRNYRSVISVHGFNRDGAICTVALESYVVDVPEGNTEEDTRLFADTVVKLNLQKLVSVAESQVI
AtHAB1ΔN with CsPYL1^5m (Citrus sinensis, UniProt A0A067E666, F137I/T135L/T153I/V112L/V168A), sequence (Q9CAJ0 179-511 partner): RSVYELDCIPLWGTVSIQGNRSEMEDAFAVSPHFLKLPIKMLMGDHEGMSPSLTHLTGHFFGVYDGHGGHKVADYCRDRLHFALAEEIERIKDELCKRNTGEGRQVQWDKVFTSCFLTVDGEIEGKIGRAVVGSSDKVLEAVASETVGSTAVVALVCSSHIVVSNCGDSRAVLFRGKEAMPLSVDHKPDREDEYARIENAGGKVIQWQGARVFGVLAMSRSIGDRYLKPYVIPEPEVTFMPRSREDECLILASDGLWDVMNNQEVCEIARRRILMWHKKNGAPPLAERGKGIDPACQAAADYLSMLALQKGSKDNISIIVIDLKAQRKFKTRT
Description: as §1, with “Proteins were incubated with the ligands for 10 min at room temperature. pNPP was then added to start the reactions, and the absorbance at 405 nm was monitored for 20 min in a ViktorX5 plate reader.” left out

ΔNHAB1 with AtPYL10 [4] = target: T3, ΔNHAB1 with AtPYL10 (Arabidopsis thaliana, UniProt Q8H1R0); experiment: PP2C inhibition assay, HAB1 with AtPYL10; format: biochemical
T3 construct: His; made in house
T3 sequence (Q8H1R0 whole entry, stated change not applied): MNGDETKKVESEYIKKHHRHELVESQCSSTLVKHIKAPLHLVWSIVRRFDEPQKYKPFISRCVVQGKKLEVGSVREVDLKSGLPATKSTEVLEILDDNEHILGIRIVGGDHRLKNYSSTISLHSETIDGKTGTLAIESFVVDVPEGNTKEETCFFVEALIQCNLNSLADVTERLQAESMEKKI
Description: as §1

ΔNHAB1 with AtPYL10 [5] = experiment: PP2C inhibition assay, HAB1 with AtPYL10; format: biochemical, Arabidopsis thaliana; conditions: more sensitive
Description: as §1

[6] = test system: Arabidopsis thaliana seedlings; experiment: Root growth assay; format: in vivo; conditions: for reduction of root growth: 50 μM SB
Description: Seedlings were grown on vertically oriented Murashige and Skoog (MS) plates for 4 to 5 days. Afterward, seedlings were transferred to MS supplemented with the indicated concentrations of the different ligands and kept on vertical orientation. Ten days later, the plates were scanned on a flatbed scanner to produce image files suitable for quantitative analysis of root growth using the NIH Image software ImageJ. The experiment was performed in triplicate (n = 13 to 16). Statistical comparisons were performed by either pairwise t tests or one-way ANOVA using GraphPad Prism 9.

HAB1 with SlPYL1 = experiment: PP2C inhibition assay, HAB1 with SlPYL1; format: biochemical, Solanum lycopersicum (SlPYL1); Arabidopsis thaliana (HAB1); conditions: 100 μM SB
Description: as §1

[7] = read-out: inhibition of HAB1 phosphatase activity

Q: Which IC50 (ΔNHAB1 with AtPYL5; Fig. 1B, read-out: IC50 for SB-dependent inhibition of ΔNHAB1 by AtPYL5) does the source give for `Cc1cc(=O)n(C)c2ccc(S(=O)(=O)NCc3ccccc3)cc12` [SB, N-benzyl-1,4-dimethyl-2-oxo-1,2-dihydroquinoline-6-sulfonamide] here?
A: 877 ± 6 nM

Q: What about the “IC50 of SB relative to IC50 of ABA” value (ΔNHAB1 with AtPYL5; PYL5, higher than ABA) of the same compound?
A: circa 30 fold

Q: What about the inhibition at 100 µM (ΔNHAB1 with AtPYL5; [7]) of the same compound?
A: > 75%

Q: And the “inhibition of seedling establishment” value ([1]; 35S:CsPYL1^5m lines, 10 μM SB)?
A: sensitive

Q: What about the “inhibition of seedling establishment” value ([1]; 35S:CsPYL1 lines, even by 100 μM SB) of the same compound?
A: not affected

Q: And the “dosage required to inhibit seedling establishment relative to ABA” value ([1]; CsPYL1^5m lines, higher than ABA)?
A: 20 fold

Q: What about the “inhibition of seedling establishment” value ([1]; PYL5- and PYL10-overexpressing lines, 50 to 100 μM SB) of the same compound?
A: reduced the seedling establishment

Q: And the “inhibition of seedling establishment” value ([1]; WT seeds, even at 100 μM)?
A: not active

Q: What about the IC50 (ΔNHAB1 with AtPYL1; Fig. 1B, read-out: IC50 for SB-dependent inhibition of ΔNHAB1 by AtPYL1) of the same compound?
A: 10100 ± 1990 nM

Q: And the “IC50 of SB relative to IC50 of ABA” value (ΔNHAB1 with AtPYL1; PYL1, higher than ABA)?
A: circa 30 fold

Q: And the “inhibition of HAB1 activity by candidate molecules of the in silico screening” value (AtHAB1ΔN with CsPYL1)?
A: able to inhibit HAB1 activity

Q: And the “IC50 of SB for CsPYL1^5m relative to WT CsPYL1” value (AtHAB1ΔN with CsPYL1^5m [2])?
A: 12 fold

Q: And the IC50 (AtHAB1ΔN with CsPYL1^5m [3])?
A: 877 nM and 876 nM

Q: And the “IC50 of SB relative to IC50 of ABA” value (ΔNHAB1 with AtPYL10 [4]; AtPYL10)?
A: fourfold higher

Q: And the IC50 (ΔNHAB1 with AtPYL10 [4]; Fig. 1B, read-out: IC50 for SB-dependent inhibition of ΔNHAB1 by AtPYL10)?
A: 506 ± 56 nM

Q: And the inhibition at 100 µM (ΔNHAB1 with AtPYL10 [4]; [7])?
A: > 75%

Q: What about the “sensitivity to SB of PYL10 relative to PYL1 members” value (ΔNHAB1 with AtPYL10 [5]) of the same compound?
A: 20 fold

Q: What about the “reduction of root growth” value ([6]; PYL5- and PYL10-overexpressing lines) of the same compound?
A: 40%

Q: What about the “reduction of root growth” value ([6]; WT seedlings) of the same compound?
A: 20%

Q: What about the “effect on root growth” value ([6]; sextuple 112458 mutant) of the same compound?
A: resistant

Q: What about the “reduction of phosphatase activity” value (HAB1 with SlPYL1) of the same compound?
A: around 50%
